Results: the supplement of paper PMC11061612

Legend:
Carboplatin = compound: C1CC(C1)(C(=O)[O-])C(=O)[O-].N.N.[Pt+2] [Carboplatin]; conditions: max 10 µM
Outline: (§1)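 Following 24 hours at 37°C and 5% CO2, cancer cell lines in 1536-well plates with 7.5 μl DMEM/F12 or RPMI and 10% FBS were dosed for 72 hours, final DMSO typically being 0.2%. CellTiter-Glo 2.0 luminescence, scaled between blank-well and DMSO-well means, gave the viability readout. Dose responses were fitted to a two-parameter logistic curve with a non-linear mixed effects model, and the single-agent IC50 was derived from this fit.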

AZD5363 = compound: C1CN(CCC1(C(=O)N[C@@H](CCO)C2=CC=C(C=C2)Cl)N)C3=NC=NC4=C3C=CN4 [AZD5363]; conditions: max 10 µM
Outline: as §1

AZD1775 = compound: C=CCn1c(=O)c2cnc(Nc3ccc(N4CCN(C)CC4)cc3)nc2n1-c1cccc(C(C)(C)O)n1 [AZD1775]; conditions: max 3 µM
Outline: as §1

Trametinib = compound: CC(=O)Nc1cccc(-n2c(=O)n(C3CC3)c(=O)c3c(Nc4ccc(I)cc4F)n(C)c(=O)c(C)c32)c1 [Trametinib]; conditions: max 1 µM
Outline: as §1

Paclitaxel = compound: CC(=O)O[C@H]1C(=O)[C@@]2(C)[C@H]([C@H](OC(=O)c3ccccc3)[C@]3(O)C[C@H](OC(=O)[C@H](O)[C@@H](NC(=O)c4ccccc4)c4ccccc4)C(C)=C1C3(C)C)[C@]1(OC(C)=O)CO[C@@H]1C[C@@H]2O [Paclitaxel]; conditions: max 3 µM
Outline: as §1

Palbociclib = compound: CC(=O)c1c(C)c2cnc(Nc3ccc(N4CCNCC4)cn3)nc2n(C2CCCC2)c1=O [Palbociclib]; conditions: max 10 µM
Outline: as §1

AZD1390 = compound: CC(C)n1c(=O)n(C)c2cnc3cc(F)c(-c4ccc(OCCCN5CCCCC5)nc4)cc3c21 [AZD1390]; conditions: max 0.3 µM
Outline: as §1

Venetoclax = compound: CC1(C)CCC(CN2CCN(c3ccc(C(=O)NS(=O)(=O)c4ccc(NCC5CCOCC5)c([N+](=O)[O-])c4)c(Oc4cnc5[nH]ccc5c4)c3)CC2)=C(c2ccc(Cl)cc2)C1 [Venetoclax]; conditions: max 1 µM
Outline: as §1

Dasatinib = compound: CC1=C(C(=CC=C1)Cl)NC(=O)C2=CN=C(S2)NC3=CC(=NC(=N3)C)N4CCN(CC4)CCO [Dasatinib]; conditions: max 2 µM
Outline: as §1

SG3199 = compound: CC1=CN2[C@@H](C1)C=NC3=CC(=C(C=C3C2=O)OC)OCCCCCOC4=C(C=C5C(=C4)N=C[C@@H]6CC(=CN6C5=O)C)OC [SG3199]; conditions: max 0.001 µM
Outline: as §1

AZD2811 = compound: CCN(CCO)CCCOc1ccc2c(Nc3cc(CC(=O)Nc4cccc(F)c4)[nH]n3)ncnc2c1 [AZD2811]; conditions: max 1 µM
Outline: as §1

SN-38 = compound: CCc1c2c(nc3ccc(O)cc13)-c1cc3c(c(=O)n1C2)COC(=O)[C@]3(O)CC [SN-38]; conditions: max 0.3 µM
Outline: as §1

AZD0156 = compound: CN(C)CCCOc1ccc(-c2ccc3ncc4c(c3c2)n(C2CCOCC2)c(=O)n4C)cn1 [AZD0156]; conditions: max 3 µM
Outline: as §1

AZD4320 = compound: CN(CC[C@H](CSC1=CC=CC=C1)NC2=C(C=C(C=C2)S(=O)(=O)NC(=O)C3=CC=C(C=C3)N4CCC(CC4)[C@H](C5=CC=CC=C5C6=CC=C(C=C6)Cl)O)S(=O)(=O)C(F)(F)F)CCO [AZD4320]; conditions: max 1 µM
Outline: as §1

Alisertib = compound: COc1cc(Nc2ncc3c(n2)-c2ccc(Cl)cc2C(c2c(F)cccc2OC)=NC3)ccc1C(=O)O [Alisertib]; conditions: max 10 µM
Outline: as §1

Etoposide = compound: COc1cc([C@@H]2c3cc4c(cc3[C@@H](O[C@@H]3O[C@@H]5CO[C@@H](C)O[C@H]5[C@H](O)[C@H]3O)[C@H]3COC(=O)[C@H]23)OCO4)cc(OC)c1O [Etoposide]; conditions: max 10 µM
Outline: as §1

Gefitinib = compound: COc1cc2ncnc(Nc3ccc(F)c(Cl)c3)c2cc1OCCCN1CCOCC1 [Gefitinib]; conditions: max 10 µM
Outline: as §1

Prexasertib = compound: COc1cccc(OCCCN)c1-c1cc(Nc2cnc(C#N)cn2)n[nH]1 [Prexasertib]; conditions: max 1 µM
Outline: as §1

Doxorubicin = compound: COc1cccc2c1C(=O)c1c(O)c3c(c(O)c1C2=O)C[C@@](O)(C(=O)CO)C[C@@H]3O[C@H]1C[C@H](N)[C@H](O)[C@H](C)O1 [Doxorubicin]; conditions: max 1 µM
Outline: as §1

AZD5153 = compound: COc1nnc2ccc(N3CCC(c4ccc(OCCN5CCN(C)C(=O)[C@H]5C)cc4)CC3)nn12 [AZD5153]; conditions: max 1 µM
Outline: as §1

Lapatinib = compound: CS(=O)(=O)CCNCc1ccc(-c2ccc3ncnc(Nc4ccc(OCc5cccc(F)c5)c(Cl)c4)c3c2)o1 [Lapatinib]; conditions: max 10 µM
Outline: as §1

AZD8186 = compound: C[C@@H](Nc1cc(F)cc(F)c1)c1cc(C(=O)N(C)C)cc2c(=O)cc(N3CCOCC3)oc12 [AZD8186]; conditions: max 10 µM
Outline: as §1

Crizotinib = compound: C[C@@H](Oc1cc(-c2cnn(C3CCNCC3)c2)cnc1N)c1c(Cl)ccc(F)c1Cl [Crizotinib]; conditions: max 10 µM
Outline: as §1

Savolitinib = compound: C[C@@H](c1ccc2nccn2c1)n1nnc2ncc(-c3cnn(C)c3)nc21 [Savolitinib]; conditions: max 1 µM
Outline: as §1

AZD6738 = compound: C[C@@H]1COCCN1C2=NC(=NC(=C2)C3(CC3)[S@](=N)(=O)C)C4=C5C=CNC5=NC=C4 [AZD6738]; conditions: max 10 µM
Outline: as §1

AZD5991 = compound: Cc1c2c(nn1C)CSCc1cc(n(C)n1)CSc1cc(c3ccccc3c1)OCCCc1c(C(=O)O)n(C)c3c-2c(Cl)ccc13 [AZD5991]; conditions: max 1 µM
Outline: as §1

AZD7648 = compound: Cc1cc2ncnn2cc1Nc1ncc2c(n1)n(C1CCOCC1)c(=O)n2C [AZD7648]; conditions: max 10 µM
Outline: as §1

Taselisib = compound: Cc1nc(-c2cn3c(n2)-c2ccc(-c4cnn(C(C)(C)C(N)=O)c4)cc2OCC3)n(C(C)C)n1 [Taselisib]; conditions: max 10 µM
Outline: as §1

Selumetinib = compound: Cn1cnc2c(F)c(Nc3ccc(Br)cc3Cl)c(C(=O)NOCCO)cc21 [Selumetinib]; conditions: max 10 µM
Outline: as §1

SRA737 = compound: N#Cc1cnc(Nc2cc(NC[C@H]3CNCCO3)c(C(F)(F)F)cn2)cn1 [SRA737]; conditions: max 10 µM
Outline: as §1

MK-2206 = compound: NC1(c2ccc(-c3nc4ccn5c(=O)[nH]nc5c4cc3-c3ccccc3)cc2)CCC1 [MK-2206]; conditions: max 10 µM
Outline: as §1

Gemcitabine = compound: Nc1ccn([C@@H]2O[C@H](CO)[C@@H](O)C2(F)F)c(=O)n1 [Gemcitabine]; conditions: max 0.3 µM
Outline: as §1

[1] = compound: O=C(Nc1ccc2[nH]nc(-c3ccncc3)c2c1)[C@@H]1CCN(CC(=O)N2CCN(c3ccc(-c4ncccn4)cc3)CC2)C1; conditions: max 5 µM
Outline: as §1

Olaparib = compound: O=C(c1cc(Cc2n[nH]c(=O)c3ccccc23)ccc1F)N1CCN(C(=O)C2CC2)CC1 [Olaparib]; conditions: max 10 µM
Outline: as §1

5-Fluorouracil = compound: O=c1[nH]cc(F)c(=O)[nH]1 [5-Fluorouracil]; conditions: max 20 µM
Outline: as §1

Row | Cell Line | IC50, cell viability 72 h (Carboplatin) [µM] | IC50, cell viability 72 h (AZD5363) [µM] | IC50, cell viability 72 h (AZD1775) [µM] | IC50, cell viability 72 h (Trametinib) [µM] | IC50, cell viability 72 h (Paclitaxel) [µM] | IC50, cell viability 72 h (Palbociclib) [µM] | IC50, cell viability 72 h (AZD1390) [µM] | IC50, cell viability 72 h (Venetoclax) [µM] | IC50, cell viability 72 h (Dasatinib) [µM] | IC50, cell viability 72 h (SG3199) [µM] | IC50, cell viability 72 h (AZD2811) [µM] | IC50, cell viability 72 h (SN-38) [µM] | IC50, cell viability 72 h (AZD0156) [µM] | IC50, cell viability 72 h (AZD4320) [µM] | IC50, cell viability 72 h (Alisertib) [µM] | IC50, cell viability 72 h (Etoposide) [µM] | IC50, cell viability 72 h (Gefitinib) [µM] | IC50, cell viability 72 h (Prexasertib) [µM] | IC50, cell viability 72 h (Doxorubicin) [µM] | IC50, cell viability 72 h (AZD5153) [µM] | IC50, cell viability 72 h (Lapatinib) [µM] | IC50, cell viability 72 h (AZD8186) [µM] | IC50, cell viability 72 h (Crizotinib) [µM] | IC50, cell viability 72 h (Savolitinib) [µM] | IC50, cell viability 72 h (AZD6738) [µM] | IC50, cell viability 72 h (AZD5991) [µM] | IC50, cell viability 72 h (AZD7648) [µM] | IC50, cell viability 72 h (Taselisib) [µM] | IC50, cell viability 72 h (Selumetinib) [µM] | IC50, cell viability 72 h (SRA737) [µM] | IC50, cell viability 72 h (MK-2206) [µM] | IC50, cell viability 72 h (Gemcitabine) [µM] | IC50, cell viability 72 h [1] [µM] | IC50, cell viability 72 h (Olaparib) [µM] | IC50, cell viability 72 h (5-Fluorouracil) [µM]
1 | 22RV1 (Prostate Carcinoma) | > 10 | > 10 | > 3 | > 1 | 0.0506 | > 10 | > 0.3 | > 1 | > 2 | > 0.001 | > 1 | 0.0289 | > 3 | > 1 | > 10 | > 10 | > 10 | > 1 | 0.426 | > 1 | > 10 | > 10 | > 10 | > 1 | > 10 | > 1 | > 10 | 1.86 | > 10 | > 10 | 6.05 | 0.101 | > 5 | > 10 | > 20
2 | 769-P (Kidney Carcinoma) | > 10 | > 10 | 0.874 | > 1 | 0.109 | 2.87 | > 0.3 | > 1 | 0.253 | > 0.001 | > 1 | 0.159 | > 3 | > 1 | > 10 | > 10 | 8.48 | 0.0406 | 0.816 | 0.168 | 5.24 | > 10 | 4.59 | > 1 | 1.5 | > 1 | > 10 | > 10 | > 10 | 1.54 | > 10 | 0.0243 | > 5 | > 10 | 12.4
3 | A2780 (Ovarian Carcinoma) | > 10 | 1.83 | 0.813 | 0.0391 | 0.00438 | 1.16 | > 0.3 | > 1 | > 2 | > 0.001 | 0.37 | 0.0113 | > 3 | > 1 | 0.386 | 0.582 | > 10 | 0.334 | 0.0483 | 0.0737 | > 10 | 1.38 | 2.19 | > 1 | 3.65 | 0.964 | 9.29 | 0.117 | 3.53 | > 10 | 1.61 | 0.00845 | 0.243 | 9.95 | 9.03
4 | CGTH-W-1 (Thyroid Gland Carcinoma) | > 10 | > 10 | > 3 | > 1 | 2.59 | > 10 | > 0.3 | > 1 | 0.544 | > 0.001 | > 1 | 0.0308 | > 3 | > 1 | > 10 | > 10 | > 10 | 0.129 | 0.934 | > 1 | > 10 | > 10 | > 10 | > 1 | > 10 | > 1 | > 10 | 9.16 | > 10 | > 10 | > 10 | 0.119 | > 5 | > 10 | > 20
5 | EB2 (Burkitt's Lymphoma) | > 10 | 3.27 | 0.348 | > 1 | 0.0301 | > 10 | > 0.3 | > 1 | 0.494 | > 0.001 | > 1 | 0.00403 | > 3 | > 1 | 7.23 | 0.198 | > 10 | 0.0078 | 0.0297 | 0.348 | > 10 | 4.92 | 6.78 | > 1 | 1.63 | > 1 | > 10 | 2.02 | > 10 | 1.03 | 3.04 | 0.0138 | > 5 | > 10 | > 20
